Here are results for four compounds from patent US20210085688A1, “PHARMACEUTICAL COMBINATIONS OF EGFR INHIBITORS AND METHODS OF USE THEREOF” (DANA-FARBER CANCER INSTITUTE, INC., priority 2018, published 2021).

Like-named read-outs stand apart in the source and are kept apart here.

The target of the assay is EGFR T790M/L858R Ba/F3 cell line (Homo sapiens, UniProt P00533, T790M/L858R, cells depend on it). The experiment in a line: Ba/F3 cell proliferation (MTS assay), EGFR T790M/L858R. Type of assay: cell-based, murine. As for the experimental part: The EGFR mutant L858R, Del E746_A750, L858R/T790M, DelE746_A750/T790M, L858R/T790M/C797S and Del/T790M/C797S Ba/F3 cells were previously described (Zhou et al., Nature 462, (2009), 1070-1074). All cell lines were maintained in RPMI 1640 (Cellgro; Mediatech Inc., Herndon, Calif.) supplemented with 10% FBS 100 units/mL penicillin, 100 units/mL streptomycin, and 2 mM glutamine. L858R cells were maintained in ACL-4 media (Invitrogen, Carlsbad, Calif.) supplemented with 5% FBS, 100 units/mL penicillin, 100 units/mL streptomycin, and 2 mM glutamine. The EGFR I941R mutation was introduced via site directed mutagenesis using the Quick Change Site-Directed Mutagenesis kit (Stratagene; La Jolla, Calif.) according to the manufacturer's instructions. All constructs were confirmed by DNA sequencing. The constructs were shuttled into the retroviral vector JP1540 using the BD Creator™ System (BD Biosciences). Ba/F3 cells were infected with retrovirus and according to standard protocols, as described previously (Zhou 2009). Stable clones were obtained by selection in puromycin (2 μg/ml).
Growth and inhibition of growth was assessed by MTS assay and was performed according to previously established methods (Zhou 2009). The MTS assay is a colorimetric method for determining the number of viable cells that is based on the bioreduction of MTS by cells to a formazan product that is soluble in cell culture medium and can be detected spectrophotometrically. […] All experimental points were set up in six wells and all experiments were repeated at least three times. […] The curves were fitted using a non-linear regression model with a sigmoidal dose response.
On the technique in general: Formazan colour is commonly taken as a measure of viable cells.

[1] abbreviates: absence of cetuximab, read-out: Ba/F3 cellular activity (EC50) T790M/L858R.
The mark [2] stands for this setting: read-out: Ba/F3 cellular activity (EC50) T790M/L858R + Cetuximab, presence of 1 μg/mL cetuximab.

EGFR T790M/L858R Ba/F3 cell line, sequence (P00533 whole entry T790M/L858R): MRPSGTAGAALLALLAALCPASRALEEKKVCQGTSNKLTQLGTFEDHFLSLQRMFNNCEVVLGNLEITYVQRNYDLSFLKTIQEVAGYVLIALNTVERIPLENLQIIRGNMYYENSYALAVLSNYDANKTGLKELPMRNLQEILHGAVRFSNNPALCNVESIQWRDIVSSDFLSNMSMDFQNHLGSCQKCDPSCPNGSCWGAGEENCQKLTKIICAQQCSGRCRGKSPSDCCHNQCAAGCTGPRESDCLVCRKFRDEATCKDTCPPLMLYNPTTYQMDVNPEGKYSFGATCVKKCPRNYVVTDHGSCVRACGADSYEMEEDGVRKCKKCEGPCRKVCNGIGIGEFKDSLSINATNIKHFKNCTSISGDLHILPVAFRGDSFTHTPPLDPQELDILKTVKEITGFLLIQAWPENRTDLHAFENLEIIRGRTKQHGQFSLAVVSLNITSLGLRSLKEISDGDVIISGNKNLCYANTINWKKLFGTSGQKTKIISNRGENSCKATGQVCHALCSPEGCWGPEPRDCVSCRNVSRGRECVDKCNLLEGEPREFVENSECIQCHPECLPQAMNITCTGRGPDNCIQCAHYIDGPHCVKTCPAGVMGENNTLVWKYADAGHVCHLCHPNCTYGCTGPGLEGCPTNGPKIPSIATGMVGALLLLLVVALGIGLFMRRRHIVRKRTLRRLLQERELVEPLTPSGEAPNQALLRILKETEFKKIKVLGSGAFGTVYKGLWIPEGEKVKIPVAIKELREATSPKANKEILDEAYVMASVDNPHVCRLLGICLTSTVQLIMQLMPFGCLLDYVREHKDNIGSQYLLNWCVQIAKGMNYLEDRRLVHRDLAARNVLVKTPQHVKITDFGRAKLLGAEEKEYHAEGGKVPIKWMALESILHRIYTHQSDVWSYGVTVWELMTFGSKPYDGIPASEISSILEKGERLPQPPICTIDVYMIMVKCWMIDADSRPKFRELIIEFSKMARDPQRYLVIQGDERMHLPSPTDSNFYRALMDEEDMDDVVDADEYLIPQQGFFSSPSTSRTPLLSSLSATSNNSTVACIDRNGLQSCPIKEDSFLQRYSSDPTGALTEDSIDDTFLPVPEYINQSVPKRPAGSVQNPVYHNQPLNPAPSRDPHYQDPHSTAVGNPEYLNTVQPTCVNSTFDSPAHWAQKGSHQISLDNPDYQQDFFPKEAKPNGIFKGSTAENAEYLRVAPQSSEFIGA

Regarding `C=CC(=O)Nc1ccc2c(c1)N(Cc1ccccc1)C(=O)c1cc(-c3ccc4[nH]ccc4c3)ccc1N2` [Compound I-1], the EC50 reads like this: under setting [1], at least 750 nM; under setting [2], 500 to 750 nM.

On to `O=C1c2cc(Br)ccc2Nc2ccc(F)cc2N1Cc1ccccc1` [I-a, 10-Benzyl-2-bromo-8-fluoro-5,10-dihydro-11H-dibenzo[b,e][1,4]diazepin-11-one], for which the EC50 by setting is: under setting [1], at least 750 nM; under setting [2], 250 to 500 nM.

As to `C=CC(=O)Nc1ccc2c(c1)N(Cc1ccccc1)C(=O)c1cc(-c3ccc(N4CCNCC4)cc3)ccc1N2` [Compound I-3, N-(10-Benzyl-11-oxo-2-(4-(piperazin-1-yl)phenyl)-10,11-dihydro-5H-dibenzo[b,e][1,4]diazepin-8-yl)acrylamide], the EC50 reads like this: under setting [1], at least 750 nM; under setting [2], at least 750 nM.

Regarding `O=C(CCl)Nc1ccc2c(c1)N(Cc1ccccc1)C(=O)c1cc(-c3ccc4[nH]ccc4c3)ccc1N2` [Compound I-2], the EC50 runs as follows: under setting [1], below 250 nM; under setting [2], below 250 nM.
